According to paper PMC5207512, “Inhibition of Helicobacter pylori and Its Associated Urease by Palmatine: Investigation on the Potential Mechanism” (PLoS ONE, 2017):
“And” between values parts separate entries of the source, which are not always exact repeats. Equal entries are not always repeated. Where two headings read alike, the source gives them in different places.

Tests used:
jack bean urease (JBU) [1] = target: T1, jack bean urease (JBU) (Canavalia ensiformis, UniProt P07374); assay: Inhibition kinetic study (Lineweaver-Burk plots); type: biochemical; conditions: for Lineweaver-Burk plot raw value (reciprocal velocity): Fig 3B JBU
T1 construct: Urease from jack bean (Canavalia ensiformis, JBU); purchased Sigma-Aldrich (St Louis, MO, USA) type III (catalogue number not given)
Protocol: Michaelis constant KM and the maximum velocity vmax values were evaluated by means of Lineweaver—Burk plots, using the initial velocities at different urea concentrations (ranging from 0.3125 to 15 mM), in the absence or presence of 1.00, 0.50, and 0.25 mM Pal. The concentrations of HPU and JBU were both 0.25 mg/mL in the assays. The values were obtained by applying nonlinear regression to the Michaelis-Menten equation. All experiments were performed in triplicate.

H. pylori urease (HPU) [2] = target: T2, H. pylori urease (HPU) (Helicobacter pylori, UniProt P69996); assay: biochemical; type: biochemical
T2 construct: HPU was prepared as previously described; made in house
Protocol: (§1) For the protection with inorganic compounds (BA and NaF), 0.25 mg/mL urease (HPU or JBU) was preincubated with 5 mM BA or 5 mM NaF for 20 min. Following preincubation, each sample of the protected urease was incubated with 0.5 mM Pal for 20 min. The samples containing a proper volume of respective buffer instead of Pal served as comparison with the abovementioned systems. The experiments were triply performed.

jack bean urease (JBU) [3] = target: T1, jack bean urease (JBU); assay: biochemical; type: biochemical
Protocol: as §1

[4] = tested on: four H. pylori strains (ATCC 43504, NCTC 26695, SS1 and ICDC 111001); assay: MIC by agar dilution method, range over the four strains; type: cell-based; conditions: Helicobacter pylori, read-out: MIC values against the four H. pylori strains
Protocol: A total of four H. pylori strains were studied, including three reference strains ATCC 43504, NCTC 26695 and SS1 gifted from Professor Richard Ferrero, Monash University, Australia, and one clinical isolate ICDC 111001 obtained from Professor Zhang Jianzhong, Chinese Center of Disease Control and Prevention. […] The MICs of Pal against the four H. pylori strains were evaluated by using agar dilution method. […] H. pylori strains were harvested and resuspended in PBS (1.0–2.0 McFarland were defined based on the strain properties). […] After 72 h, the MIC values were determined as the lowest concentration at which there was no strain growth judged by visual examination. Metronidazole was used as the positive control. The experiments were evaluated under two different pH (7.4 and 5.3) conditions and repeated twice.

[5] = parameters: method as in PMID 24795799; conditions: cited from earlier work
H. pylori urease (HPU) [6] = target: T2, H. pylori urease (HPU); assay: biochemical; type: biochemical; conditions: for activity at 500 µM: read-out: Urease activity, Fig 6A HPU, Pal 0.5 mM, DTT 1.25 mM
Protocol: (§2) The reactivation of Pal-inactivated urease was investigated by DTT application. The preincubation mixture consisted of 0.25 mg/mL HPU or JBU and 0.5 mM Pal in 20 mM HEPES buffer (pH 7.5). Then the mixture was further incubated with 1.25 mM DTT after 20 min. The enzymatic activity of urease was determined before and after the addition of DTT. After a while, aliquots were withdrawn and the urease residual activity was determined. The experiments were repeated three times.

jack bean urease (JBU) [7] = target: T1, jack bean urease (JBU); assay: biochemical; type: biochemical; conditions: for activity at 500 µM: read-out: Urease activity, Fig 6B JBU, Pal 0.5 mM, DTT 1.25 mM
Protocol: as §2

H. pylori urease (HPU) [8] = target: T2, H. pylori urease (HPU); assay: biochemical; type: biochemical; conditions: read-out: Residual urease activity (percent of control), Fig 5A HPU, thiols 1.25 mM, Pal 0.5 mM, 20+20 min
Protocol: (§3) The reaction mixture consisted of 0.25 mg/mL HPU or JBU, 0.5 mM Pal (for both HPU and JBU), and 1.25 mM thiols (DTT, GSH, or L-cys) in 20 mM HEPES buffer (pH 7.5). The components of the incubation mixture were mixed according to three procedures: (1) Urease was added to the mixture after a 20-min co-incubation of Pal with thiol. (2) Pal was added to the mixture after a 20-min co-incubation of urease with thiol. (3) Thiols were added to the mixture after a 20-min co-incubation of urease with Pal. The incubation mixture containing all components was incubated for further 20 min and the activity of urease was determined. The experiments were triply performed.

jack bean urease (JBU) [9] = target: T1, jack bean urease (JBU); assay: biochemical; type: biochemical; conditions: read-out: Residual urease activity (percent of control), Fig 5B JBU, thiols 1.25 mM, Pal 0.5 mM, 20+20 min
Protocol: as §3

T1 sequence (P07374 whole entry, looked up): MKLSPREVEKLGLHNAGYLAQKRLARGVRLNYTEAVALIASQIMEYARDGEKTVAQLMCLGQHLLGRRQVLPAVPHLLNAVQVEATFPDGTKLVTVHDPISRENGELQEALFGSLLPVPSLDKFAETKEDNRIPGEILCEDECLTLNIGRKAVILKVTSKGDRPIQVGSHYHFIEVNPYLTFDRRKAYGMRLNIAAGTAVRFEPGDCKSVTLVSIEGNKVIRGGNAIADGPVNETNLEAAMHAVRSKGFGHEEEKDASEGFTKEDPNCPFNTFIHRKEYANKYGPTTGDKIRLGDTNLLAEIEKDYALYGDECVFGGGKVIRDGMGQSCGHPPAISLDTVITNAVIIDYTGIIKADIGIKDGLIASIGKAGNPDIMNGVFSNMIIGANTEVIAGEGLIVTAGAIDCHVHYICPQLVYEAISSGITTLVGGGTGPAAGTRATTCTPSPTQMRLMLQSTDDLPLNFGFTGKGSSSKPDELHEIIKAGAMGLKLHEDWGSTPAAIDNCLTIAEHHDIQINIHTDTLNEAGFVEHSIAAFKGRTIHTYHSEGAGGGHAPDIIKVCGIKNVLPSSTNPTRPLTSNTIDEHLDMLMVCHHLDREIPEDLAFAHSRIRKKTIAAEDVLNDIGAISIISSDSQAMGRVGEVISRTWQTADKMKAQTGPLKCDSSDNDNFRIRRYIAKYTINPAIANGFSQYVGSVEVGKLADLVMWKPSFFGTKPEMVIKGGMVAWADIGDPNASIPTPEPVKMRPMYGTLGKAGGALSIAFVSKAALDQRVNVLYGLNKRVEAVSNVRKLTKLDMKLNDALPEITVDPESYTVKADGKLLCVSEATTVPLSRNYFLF
T2 sequence (P14916 whole entry): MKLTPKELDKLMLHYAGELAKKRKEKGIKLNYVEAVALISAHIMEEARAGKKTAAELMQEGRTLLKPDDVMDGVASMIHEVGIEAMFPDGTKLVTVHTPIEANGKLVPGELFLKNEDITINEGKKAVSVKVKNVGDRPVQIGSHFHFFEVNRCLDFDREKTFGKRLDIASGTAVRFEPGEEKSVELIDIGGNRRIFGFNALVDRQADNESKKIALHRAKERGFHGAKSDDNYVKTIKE
T2 sequence (P69996 whole entry): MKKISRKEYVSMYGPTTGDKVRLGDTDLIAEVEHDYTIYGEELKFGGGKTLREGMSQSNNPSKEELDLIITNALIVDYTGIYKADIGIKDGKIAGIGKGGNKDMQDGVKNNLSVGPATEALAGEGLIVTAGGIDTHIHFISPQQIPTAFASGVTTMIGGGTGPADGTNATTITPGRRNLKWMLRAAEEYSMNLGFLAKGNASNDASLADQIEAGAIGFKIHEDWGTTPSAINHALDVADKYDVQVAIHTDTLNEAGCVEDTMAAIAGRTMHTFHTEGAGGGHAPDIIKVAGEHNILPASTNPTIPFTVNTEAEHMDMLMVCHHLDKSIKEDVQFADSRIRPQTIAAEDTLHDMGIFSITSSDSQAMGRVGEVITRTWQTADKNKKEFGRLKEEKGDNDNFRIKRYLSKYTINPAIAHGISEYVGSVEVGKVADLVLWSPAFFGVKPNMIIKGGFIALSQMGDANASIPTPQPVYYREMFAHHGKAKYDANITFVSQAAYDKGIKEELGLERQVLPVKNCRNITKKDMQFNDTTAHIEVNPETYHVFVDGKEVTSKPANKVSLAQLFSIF

COc1cc2c(cc1OC)-c1cc3ccc(OC)c(OC)c3c[n+]1CC2 [Pal, Palmatine]
Lineweaver-Burk plot raw value (reciprocal velocity) (jack bean urease (JBU) [1]; Pal=0.25 mM, 1/urea 0.0333333): 6.736 and 6.4288 and 6.3593
Lineweaver-Burk plot raw value (reciprocal velocity) (jack bean urease (JBU) [1]; Pal=0.25 mM, 1/urea 0.0666667): 9.843 and 8.358 and 8.117
Lineweaver-Burk plot raw value (reciprocal velocity) (jack bean urease (JBU) [1]; Pal=0.25 mM, 1/urea 0.266667): 12.8949 and 20.429 and 18.9394
Lineweaver-Burk plot raw value (reciprocal velocity) (jack bean urease (JBU) [1]; Pal=0.25 mM, 1/urea 0.533333): 27.5862 and 33.6135 and 34.6021
Lineweaver-Burk plot raw value (reciprocal velocity) (jack bean urease (JBU) [1]; Pal=0.25 mM, 1/urea 1.06667): 85.4701 and 51.1509 and 56.8182
Lineweaver-Burk plot raw value (reciprocal velocity) (jack bean urease (JBU) [1]; Pal=0.50 mM, 1/urea 0.0333333): 6.923 and 7.202 and 9.225
Lineweaver-Burk plot raw value (reciprocal velocity) (jack bean urease (JBU) [1]; Pal=0.50 mM, 1/urea 0.0666667): 8.807 and 9.298 and 11.1669
Lineweaver-Burk plot raw value (reciprocal velocity) (jack bean urease (JBU) [1]; Pal=0.50 mM, 1/urea 0.133333): 18.6916 and 14.9813 and 17.4672
Lineweaver-Burk plot raw value (reciprocal velocity) (jack bean urease (JBU) [1]; Pal=0.50 mM, 1/urea 0.266667): 37.037 and 24.1255 and 22.7273
Lineweaver-Burk plot raw value (reciprocal velocity) (jack bean urease (JBU) [1]; Pal=0.50 mM, 1/urea 0.533333): 57.971 and 34.3053 and 43.4783
Lineweaver-Burk plot raw value (reciprocal velocity) (jack bean urease (JBU) [1]; Pal=1.00 mM, 1/urea 0.0333333): 7.877 and 9.307 and 11.4613
Lineweaver-Burk plot raw value (reciprocal velocity) (jack bean urease (JBU) [1]; Pal=1.00 mM, 1/urea 0.0666667): 11.4679 and 16.2867 and 12.6662
Lineweaver-Burk plot raw value (reciprocal velocity) (jack bean urease (JBU) [1]; Pal=1.00 mM, 1/urea 0.133333): 16.1031 and 22.0507 and 21.7155
Lineweaver-Burk plot raw value (reciprocal velocity) (jack bean urease (JBU) [1]; Pal=1.00 mM, 1/urea 0.266667): 25.0313 and 34.7222 and 40.9836
Lineweaver-Burk plot raw value (reciprocal velocity) (jack bean urease (JBU) [1]; Pal=1.00 mM, 1/urea 0.533333): 40.4858 and 35.0263 and 56.6572
type of urease inhibition (jack bean urease (JBU) [1]; JBU, Lineweaver-Burk): noncompetitive
Residual urease activity (percent of control) (H. pylori urease (HPU) [2]; Fig 4C HPU, BA or NaF 5 mM preincubated 20 min, Pal 0.5 mM 20 min): 23.7773% and 26.341%
activity of enzyme inactivated by Pal in the presence of BA (H. pylori urease (HPU) [2]; HPU, 5 mM BA + 0.5 mM Pal, mean): 22.42%
activity of enzyme inactivated by Pal in the presence of NaF (H. pylori urease (HPU) [2]; HPU, 5 mM NaF + 0.5 mM Pal, mean): 20.35%
remaining activity at 500 µM (H. pylori urease (HPU) [2]; read-out: Residual urease activity (percent of control), Fig 4C HPU, BA or NaF 5 mM preincubated 20 min, Pal 0.5 mM 20 min): 23.1%
Residual urease activity (percent of control) (jack bean urease (JBU) [3]; Fig 4D JBU, BA or NaF 5 mM preincubated 20 min, Pal 0.5 mM 20 min): 36.6919% and 36.1251%
activity of enzyme inactivated by Pal in the presence of BA (jack bean urease (JBU) [3]; JBU, 5 mM BA + 0.5 mM Pal, mean): 33.08%
activity of enzyme inactivated by Pal in the presence of NaF (jack bean urease (JBU) [3]; JBU, 5 mM NaF + 0.5 mM Pal, mean): 19.91%
remaining activity at 500 µM (jack bean urease (JBU) [3]; read-out: Residual urease activity (percent of control), Fig 4D JBU, BA or NaF 5 mM preincubated 20 min, Pal 0.5 mM 20 min): 35.2%
MIC ([4]; acidic conditions (pH 5.3)): 75 to 100 µg/mL
MIC ([4]; neutral conditions (pH 7.4)): 100 to 200 µg/mL
anti-ulcerogenic activity [5]: better than that of the C. chinensis extract and its active principle berberine
activity at 500 µM (H. pylori urease (HPU) [6]; 5 min, incubation time 5 min): 54%
activity at 500 µM (H. pylori urease (HPU) [6]; 10 min, incubation time 10 min): 49.3%
activity at 500 µM (H. pylori urease (HPU) [6]; 0.25 h, incubation time 15 min): 49.3%
activity at 500 µM (H. pylori urease (HPU) [6]; 20 min, incubation time 20 min): 31.8%
reversibility of inhibition (H. pylori urease (HPU) [6]; HPU, DTT reactivation assay): reversible
activity at 500 µM (jack bean urease (JBU) [7]; 5 min, incubation time 5 min): 32.2%
activity at 500 µM (jack bean urease (JBU) [7]; 10 min, incubation time 10 min): 20.5%
activity at 500 µM (jack bean urease (JBU) [7]; 0.25 h, incubation time 15 min): 21.6%
activity at 500 µM (jack bean urease (JBU) [7]; 20 min, incubation time 20 min): 30.9%
reversibility of inhibition (jack bean urease (JBU) [7]; JBU, DTT reactivation assay): reversible
remaining activity at 500 µM (H. pylori urease (HPU) [8]; order (Protector+Pal)+urease): 19.8%
remaining activity at 500 µM (H. pylori urease (HPU) [8]; order (urease+Pal)+Protector): 20%
remaining activity at 500 µM (H. pylori urease (HPU) [8]; order (urease+Protector)+Pal): 16.7%
remaining activity at 500 µM (jack bean urease (JBU) [9]; order (Protector+Pal)+urease): 43.3%
remaining activity at 500 µM (jack bean urease (JBU) [9]; order (urease+Pal)+Protector): 38%
remaining activity at 500 µM (jack bean urease (JBU) [9]; order (urease+Protector)+Pal): 35.4%
